Reference: article PMC5108032, “Discovery of a Quinoline-4-carboxamide Derivative with a Novel Mechanism of Action, Multistage Antimalarial Activity, and Potent in Vivo Efficacy” (Journal of Medicinal Chemistry, 2016)

What was measured:
[1] = Intrinsic clearance (Cli) in mouse liver microsomes; assay type: in vitro ADME; conditions: mouse liver microsome
Source text: (§1) inhibition at top, C= EC50, D= slope, x= inhibitor concentration and y= % inhibition. […]
(§2) reach 100% of inhibition, B was fixed to 100 only when at least 50% of inhibition was reached.
(§3) Plasmodium falciparum late stage (IV-V) gametocyte high content imaging assay Plasmodium falciparum NF54-pfs16-LUC-GFP stage IV-V Gametocytes were produced as described previously.5 Compounds were solubilized in DMSO and serially diluted in three concentrations per log standard curves in DM SO. One µl of compound was subsequently diluted in 25µl of water (4% DMSO) and 5µl transferred into the base of 384 well PerkinElmer CellCarrier plates. Forty-five µl of stage IV-V gametocytes (10%P in 0.1%H) were added to the imaging plates which were in turn sealed with a gas permeable membrane and incubated at 37°C, 5% CO 2, 5% O2, 90% N2 and 60% humidity […]
Post incubation, 5µl of MitoTracker® Red CM -H2Xros (MTR) solution (0.66ug/ml) was added to all wells and the plates incubated for a further 16hours. The assay plates were then imaged and the number of viable gametocytes determined for test compounds plus 0.4%DMSO and 5µM Puromycin.
(0.4%DMSO) control values. Percent inhibition was plotted against log compound concentration using a 4 parameter log dose, non-linear regression analysis, with sigmoidal dose response (variable slope) curve fit using Prizm 4.0. IC50 values were obtained from this curve fit. The compound testing was performed in duplicate point within two separate experiments.
Plasmodium berghei ookinete development assay
Assay was performed as previously reported.6 Briefly blood containing P. berghei CTRPp-GFP gametocytes was rapidly harvested from infected mice and introduced to test compounds pre-diluted in ookinete medium (to induce gamete formation and support ookinete development) in 96-well plates. Plates were incubated in the dark at 21°C for 22 hr before GFP fluorescence intensity measured in a plate reader. % inhibition of ookinete formation was calculated with reference to the fluorescence intensity values of a positive control (20 µM cycloheximide) and a solvent-only negative control (DMSO). All assays were performed in triplicate independent experiments and EC50 values calculated in Graphpad Prism.
The aqueous solubility of the test compounds was measured using laser nephelometry, as described previously.7 Compounds were subject to serial dilution from 10 mg/mL to 0.5 mg/mL in DMSO. An aliquot was then mixed with MilliQ water to obtain an aqueous dilution plate with a final concentration range of 100 – 5 μg/mL, with a final DMSO concentration of 1.0%. Triplicate aliquots were transferred to a flat bottomed polystyrene plate which was immediately read on the NEPHELOstar (BMG Lab Technologies). The amount of laser scatter caused by insoluble particulates (relative nephelometry units, RNU) was plotted against compound concentration using a segmental regression fit, with the point of inflection being quoted as the compounds aqueous solubility (μg/mL; […]
Intrinsic Clearance (Cli) experiments
The procedure was carried out as reported previously.7 Test compound (0.5 µM) was incubated with female CD1 mouse, male sprague-dawley rat or pooled human mixed gender liver microsomes (Xenotech LLC TM; 0.5 mg/mL 50 mM potassium phosphate buffer, pH 7.4) and the reaction initiated […]
by the addition of excess NADPH (8 mg/mL 50 mM potassium phosphate buffer, pH 7.4).
Immediately, at time zero, then at 3, 6, 9, 15 and 30 min an aliquot (50 μL) of the incubation mixture was removed and mixed with acetonitrile (100 μL) to stop the reaction. Internal standard was added to all samples, the samples centrifuged to sediment precipitated protein and the plates then sealed prior to UPLC-MS/MS analysis using a Quattro Premier XE (Waters Corporation, USA).
XLfit (IDBS, UK) was used to calculate the exponential decay and consequently the rate constant (k) from the ratio of peak area of test compound to internal standard at each timepoint. The rate of […]

[2] = tested on: Plasmodium falciparum strain 3D7; assay: Plasmodium falciparum screening, SYBR green growth inhibition; assay type: cell-based; conditions: 3D7, supplementary csv, read-out: Pf (3D7) EC50
Experimental: Plasmodium falciparum screening
Assays against P. falciparum were conducted as previously described.1 Cultures of the widely-used malaria reference strain of chloroquine-sensitive Plasmodium falciparum strain 3D7 were maintained in a 5% suspension of human red blood cells (obtained from East of Scotland Blood Transfusion Service, Ninewells Hospital, Dundee) cultured in RPMI 1640 medium (pH 7.3) supplemented with 0.5% Albumax II (Gibco Life Technologies, San Diego, CA), 12 mM sodium bicarbonate, 0.2 mM hypoxanthine and 20 mg/L gentamicin at 37°C, in a humidified atmosphere of 1% O 2, 3% CO2 with a balance of nitrogen. Growth inhibition was quantified using a fluorescence assay utilising the binding of SYBR green to double stranded DNA, which emits a fluorescent signal at 528 nm after excitation at 485nm.2 Mefloquine (potency range 30-60 nM) was used as a drug control to monitor the quality of the assay (Z’ = 0.6 to 0.8, Signal to background >3, where Z’ is a measure of the discrimination between the positive and negative controls on a screen plate). A 96-well [3H]-Hypoxanthine incorporation assay was also developed as a secondary assay in order to validate compounds from the initial screen in an orthogonal platform.3 Compound bioactivity from both assays was expressed as […]
P. falciparum (panel of resistant strains) in vitro assay. (Swiss TPH)
All Plasmodium strains were cultured according to Trager and Jensen and are described at www.beiresources.org (resistant strains: K1, W2, 7G8, TM90C2A, D6 and V1/S, sensitive strain:
NF54). EC50 values were determined in vitro by measuring incorporation of the nucleic acid precursor […]
Mammalian Cell Growth Inhibition assay
A counter-screen against normal diploid human fibroblasts (MRC-5 cell line) was carried out to exclude non-selective, and toxic compounds. The assay was essentially carried out as described previously.4 Cells were plated and incubated overnight to allow them to adhere as monolayers. A working stock of each test compound was transferred to an intermediate 384-well plate and pre-diluted with minimum essential media (MEM). The pre-diluted stocks were then transferred onto the cell monolayers, and the plates were incubated for 68 h. Resazurin, to a final concentration of 50 μM, was added to each well, after which plates were incubated for a further 3 h and measured for fluorescence (λex=528 nm, λem=590 nm)
In vitro Cell Assay Data Analysis.
All data was processed using IDBS ActivityBase® raw data was converted into per cent inhibition through linear regression by setting the high inhibition control as 100% and the no inhibition control as 0%. Quality control criteria for passing plates were as follows: Z’> 0.5, S:B> 3, %CV(no inhibition < 15 . The formula used to calculate Z’ is 1 3× (St D e v _ hi gh + St D e v _ low) . […]
All EC50 Curve fitting was undertaken using XLFit version 4.2 using Model 205 with the following 4 parametric equation: y = A + B A A + ($-&) ,where A=% inhibition at bottom, B=% […]
as §1, §2, §3
Post incubation, 5µl of MitoTracker® Red CM -H2Xros (MTR) solution (0.66ug/ml) was added to all wells and the plates incubated for a further 16hours. […]

MLM Cli [1] | EC50 [2] | SMILES
2 mL min^–1 g^–1 | – | O=C(NCCN1CCCC1)c1cc(NCCC2CCOCC2)nc2ccc(Cl)cc12 [Compound 30, 6-Chloro-N-(2-(pyrrolidin-1-yl)ethyl)-2-((2-(tetrahydro-2H-pyran-4-yl)ethyl)amino)quinoline-4-carboxamide]
1.9 mL min^–1 g^–1 | 4.4 nM | O=C(NCCN1CCCC1)c1cc(-c2ccc(S(=O)(=O)N3CCOCC3)cc2)nc2ccc(F)cc12 [Compound 38, 6-Fluoro-2-(4-(morpholinosulfonyl)phenyl)-N-(2-(pyrrolidin-1-yl)ethyl)quinoline-4-carboxamide]
<0.5 mL min^–1 g^–1 | 1.9 nM | O=C(NCCN1CCCC1)c1cc(-c2ccc(CN3CCOCC3)cc2F)nc2ccc(F)cc12 [Compound 41]
0.5 mL min^–1 g^–1 | – | O=C(NCCN1CCCC1)c1cc(-c2ccc(CN3CCOCC3)cc2Cl)nc2ccc(F)cc12 [Compound 42, 2-(2-Chloro-4-(morpholinomethyl)phenyl)-6-fluoro-N-(2-(pyrrolidin-1-yl)ethyl)quinoline-4-carboxamide]

SMILES | MLM Cli [1] | EC50 [2]
O=C(NCCN1CCCC1)c1cc(NCCCN2CCOCC2)nc2ccc(F)cc12 [Compound 25, 6-Fluoro-2-((3-morpholinopropyl)amino)-N-(2-(pyrrolidin-1-yl)ethyl)quinoline-4-carboxamide] | 0.8 mL min^–1 g^–1 | –
O=C(NCCN1CCCC1)c1cc(NCCCCN2CCOCC2)nc2ccc(Cl)cc12 [Compound 27, 6-Chloro-2-((4-morpholinobutyl)amino)-N-(2-(pyrrolidin-1-yl)ethyl)quinoline-4-carboxamide] | 2.0 mL min^–1 g^–1 | 3.8 nM
